Each structure is given as a SMILES string.

The assay has as its target Histamine H1 receptor (Cavia porcellus, UniProt P31389). The assay can be described thus: H1-Histamine receptor agonism on Guinea pig aorta was evaluated (SEM 0.03-0.18).

Chain of Histamine H1 receptor (P31389 whole entry): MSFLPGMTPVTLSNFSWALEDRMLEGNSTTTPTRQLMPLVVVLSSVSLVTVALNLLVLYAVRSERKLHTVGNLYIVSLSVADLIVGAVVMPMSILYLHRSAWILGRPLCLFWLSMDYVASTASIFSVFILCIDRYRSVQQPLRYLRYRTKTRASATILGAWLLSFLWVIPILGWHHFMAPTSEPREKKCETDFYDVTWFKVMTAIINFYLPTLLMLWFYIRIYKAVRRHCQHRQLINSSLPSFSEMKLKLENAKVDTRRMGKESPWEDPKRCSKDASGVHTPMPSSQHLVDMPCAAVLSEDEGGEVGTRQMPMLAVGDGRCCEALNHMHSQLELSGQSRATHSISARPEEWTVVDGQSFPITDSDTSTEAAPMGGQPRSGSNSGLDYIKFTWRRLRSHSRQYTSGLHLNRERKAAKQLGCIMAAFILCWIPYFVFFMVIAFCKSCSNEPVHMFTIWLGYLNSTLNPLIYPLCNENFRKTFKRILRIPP

For `NCCc1cnc(-c2cccc(C(F)(F)F)c2)[nH]1`, it took 1.28 µM to reach a half-maximal effect (EC50).

Regarding `NCCc1c[nH]c(-c2ccccc2)n1`, the midpoint of the response, the EC50, lay at 6.3 µM.

Compound `NCCc1c[nH]c(-c2cccs2)n1` registered an EC50 of 9.99 µM.

Take `NCCc1c[nH]c(Cc2cccs2)n1`: the response was half-maximal at 147 µM (EC50).

On to `NCCc1c[nH]c(-c2ccc[nH]2)n1`, for which the midpoint of the response, the EC50, lay at 10.2 µM.

Regarding `NCCc1c[nH]c(Cc2ccsc2)n1`, the 50% effective concentration (EC50) was determined as 128 µM.

`NCCc1c[nH]c(-c2csc(Br)c2)n1` displayed an EC50 of 11.4 µM.

The compound `NCCc1c[nH]c(-c2ccco2)n1` gave an EC50 of 5.37 µM.

As to `NCCc1c[nH]c(-c2cccc(I)c2)n1`, it took 2.57 µM to reach a half-maximal effect (EC50).

As for `NCCc1c[nH]c(-c2ccsc2)n1`, a half-maximal response (EC50) required 6.16 µM.

`NCCc1c[nH]c(Cc2ccccc2Cl)n1` returned an EC50 of 575 µM.

In turn, `NCCc1c[nH]c(Cc2cccc(Cl)c2)n1` came in with an EC50 of 288 µM.

Consider `NCCc1nccs1` [2-(2-aminoethyl)thiazole], for which it took 6.76 µM to reach a half-maximal effect (EC50).

As a reminder, the EC50 is the concentration needed to bring the measured effect to its halfway point. The low end stands for a more potent agent, the high end for a less potent agent.

These data come from BindingDB's records for doi:10.1021/jm00008a007 (1995).
